These results are taken from ChEMBL document CHEMBL1955740, “Structure-based virtual screening approach to the discovery of p38 MAP kinase inhibitors” (Bioorg Med Chem Lett, 2012).

The target of assay [1] is T1, Mitogen-activated protein kinase 14 (Homo sapiens, UniProt Q16539). Nature of the assay: Inhibition of MAPK p38alpha assessed as activity remaining at 50 uM relative to control.
The target in assay [2] is T1, Mitogen-activated protein kinase 14. Description: Inhibition of MAPK p38alpha.

pIC50: −log10 of the molar value. Some results are limits rather than exact numbers.

T1 sequence (Q16539 whole entry): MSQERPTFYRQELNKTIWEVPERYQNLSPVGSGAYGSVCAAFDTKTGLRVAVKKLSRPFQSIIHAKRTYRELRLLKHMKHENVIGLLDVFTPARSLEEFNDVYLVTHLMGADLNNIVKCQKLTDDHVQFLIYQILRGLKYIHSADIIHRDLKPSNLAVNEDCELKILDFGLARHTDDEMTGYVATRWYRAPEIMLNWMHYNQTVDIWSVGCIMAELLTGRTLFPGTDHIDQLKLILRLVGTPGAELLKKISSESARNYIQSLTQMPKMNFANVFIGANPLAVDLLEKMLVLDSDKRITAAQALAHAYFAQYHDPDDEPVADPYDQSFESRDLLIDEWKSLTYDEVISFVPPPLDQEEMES

Take `Cn1cc(/C=C2/C(=O)NC(=O)N(CCc3ccccc3)C2=O)c2ccccc21`: in assay [1], the Activity came out at 32%. Also, in assay [2], the negative-log IC50 (pIC50) (commonly −log10 of the IC50, conventionally taken in molar units) is 4.77.

Regarding `O=C1c2ccccc2C(=O)N1CCc1nc2c3c(-c4ccco4)c(-c4ccco4)oc3ncn2n1`, the Activity in assay [1] was determined as 39%. In addition, in assay [2], the pIC50 is below 4.52.

As for `Nc1nc(Nc2ccccc2)sc1C(=O)c1ccccc1`, in assay [1], the Activity was 8.1%. In assay [2], this compound gave a negative-log IC50 (pIC50) of 6.14.

As for `Cc1cccc(-c2nc(Nc3ccc(C(=O)O)cc3)c3ccccc3n2)c1`, the Activity in assay [1] was found to be 34%. In assay [2], this compound had a pIC50 of 4.69.

Turning to `NC(=O)c1ccc(Nc2nnc(-c3ccc(O)cc3)c3ccccc23)cc1`, in assay [1], the Activity stood at 41%. In assay [2], the pIC50 is below 4.52.

As to `CCn1cc(/C=C2/Oc3c(ccc(O)c3CN3CCOCC3)C2=O)c2ccccc21`, the Activity in assay [1] stood at 37%. The compound also gave a pIC50 in assay [2] below 4.52.
